Entries after “also recorded” stand apart in the source; their conditions may differ. Like-named read-outs stand apart in the source and are kept apart here. One block for each compound: values may come before it.
Experiments:
adult mongrel dogs [1] = test: acute in vivo cardiotonic activity in anesthetized dogs; design: species or system dog (adult mongrel); settings: for change in vivo at 0.375 mg/kg / change in vivo at 0.875 mg/kg / change in vivo at 0.925 mg/kg / change in vivo at 1.875 mg/kg: Canis lupus familiaris, cardiotonic, relative to controls; for change in vivo at 0.375 mg/kg: dose 0.375 mg/kg intravenous; for cardiotonic activity (in words): summary of Table 4; for change in vivo at 0.875 mg/kg: dose 0.875 mg/kg intravenous; for change in vivo at 0.925 mg/kg: dose 0.925 mg/kg intravenous; for change in vivo at 1.875 mg/kg: dose 1.875 mg/kg intravenous
Experimental: The acute in vivo cardiotonic activity of compounds prepared according to the present invention was determined according to a modification of the procedure described by Alousi et al., Circ. Res., 45, 666 (1979).
In particular, adult mongrel dogs were anesthetized with sodium pentobarbital and were artificially respired. Arterial pressure was monitored via a femoral artery, and the pulse pressure was used to trigger a cardiotachometer for heart rate. Left ventricular pressure was determined with a Millar catheter, and dP/dt (the change in ventricular pressure with time) was derived. Cardiac output was determined by measuring ascending aortic blood flow with an electromagnetic flow probe, and myocardial contractile force was measured with a Walton Brodie strain gauge sutured to the right ventricle. Lead II EKG was also recorded.
A standard dose (10 μg/kg/min) of dopamine was administered to assess myocardial responsiveness.
Compounds of the invention were administered by intravenous infusion or bolus […] administration, and the effects on cardiovascular parameters were determined.
Dose related effects of the test compound on blood pressure (BP), heart rate (HR), maximum change in left ventricular pressure with time (dP/dt max),% change in cardiac force (CF) and the increase in mean arterial blood pressure relative to controls (MABP) were compared to pretreatment control values, expressed as a% change and rated for activity.

adult mongrel dogs [2] = test: renal vasodilating activity in anesthetized dogs; format: in vivo, dog (adult mongrel); settings: for change in vivo at 1.2 mg/kg: dose 1.2 mg/kg intravenous; for renal vasodilating activity (in words): summary of Table 4; for change in vivo at 0.14 mg/kg: dose 0.14 mg/kg intravenous; for change in vivo at 5 mg/kg: dose 5.0 mg/kg intravenous; for change in vivo at 0.34 mg/kg: dose 0.34 mg/kg intravenous
Experimental: Goldberg et al, J. Pharmacol. Exp. Ther., 163, 188 (1968), performed an investigation of the structural requirements for dopamine-like renal vasodilation of phenethylamines and apomorphine. The following procedure is a variation of the assay described in that report.
Adult mongrel dogs were anesthetized and surgically prepared for electromagnetic measurement of renal artery blood flow. A carotid artery was cannulated for measuring arterial blood pressure, and drugs were administered intravenously. Heart rate was monitored with a cardiotachometer. Renal vascular resistance was calculated as the ratio of mean arterial blood pressure/renal artery blood flow. Dopamine was infused intravenously at 3 μg/kg/min for ten minutes (at an infusion rate of about 1 ml/min) to determine responsiveness of each dog to renal dopamine receptor stimulation. Cumulative dose-response data were obtained by infusing a compound of this invention at progressively increasing (usually three-fold) infusion rates, each dose being infused for five minutes. The maximum % increase from pre-drug control in renal artery blood flow (or a decrease in renal vascular resistance) was determined for each infusion dose.
RBF values are percent change in renal blood flow. RVR values are percent change in renal vascular resistance. MABP and HR are percent changes in mean arterial blood pressure and heart rate, respectively, relative to controls.

[3] = biological target: T1, Phosphodiesterase fraction III (Canis lupus familiaris, UniProt A0A8I3NYE0); test: inhibition of phosphodiesterase fraction III activity; format: biochemical, canine (heart); settings: for IC50: cyclic AMP 0.10-1.0 uM, pH 7.4, canine heart enzyme; for phosphodiesterase fraction III inhibition (in words): summary of Table 5
T1 construct: isolated as an isozyme from the crude canine heart homogenate; from tissue; host or cells: canine heart (crude homogenate, ion exchange chromatography, third and last PDE peak)
T1 sequence (A0A8I3NYE0 1-1135): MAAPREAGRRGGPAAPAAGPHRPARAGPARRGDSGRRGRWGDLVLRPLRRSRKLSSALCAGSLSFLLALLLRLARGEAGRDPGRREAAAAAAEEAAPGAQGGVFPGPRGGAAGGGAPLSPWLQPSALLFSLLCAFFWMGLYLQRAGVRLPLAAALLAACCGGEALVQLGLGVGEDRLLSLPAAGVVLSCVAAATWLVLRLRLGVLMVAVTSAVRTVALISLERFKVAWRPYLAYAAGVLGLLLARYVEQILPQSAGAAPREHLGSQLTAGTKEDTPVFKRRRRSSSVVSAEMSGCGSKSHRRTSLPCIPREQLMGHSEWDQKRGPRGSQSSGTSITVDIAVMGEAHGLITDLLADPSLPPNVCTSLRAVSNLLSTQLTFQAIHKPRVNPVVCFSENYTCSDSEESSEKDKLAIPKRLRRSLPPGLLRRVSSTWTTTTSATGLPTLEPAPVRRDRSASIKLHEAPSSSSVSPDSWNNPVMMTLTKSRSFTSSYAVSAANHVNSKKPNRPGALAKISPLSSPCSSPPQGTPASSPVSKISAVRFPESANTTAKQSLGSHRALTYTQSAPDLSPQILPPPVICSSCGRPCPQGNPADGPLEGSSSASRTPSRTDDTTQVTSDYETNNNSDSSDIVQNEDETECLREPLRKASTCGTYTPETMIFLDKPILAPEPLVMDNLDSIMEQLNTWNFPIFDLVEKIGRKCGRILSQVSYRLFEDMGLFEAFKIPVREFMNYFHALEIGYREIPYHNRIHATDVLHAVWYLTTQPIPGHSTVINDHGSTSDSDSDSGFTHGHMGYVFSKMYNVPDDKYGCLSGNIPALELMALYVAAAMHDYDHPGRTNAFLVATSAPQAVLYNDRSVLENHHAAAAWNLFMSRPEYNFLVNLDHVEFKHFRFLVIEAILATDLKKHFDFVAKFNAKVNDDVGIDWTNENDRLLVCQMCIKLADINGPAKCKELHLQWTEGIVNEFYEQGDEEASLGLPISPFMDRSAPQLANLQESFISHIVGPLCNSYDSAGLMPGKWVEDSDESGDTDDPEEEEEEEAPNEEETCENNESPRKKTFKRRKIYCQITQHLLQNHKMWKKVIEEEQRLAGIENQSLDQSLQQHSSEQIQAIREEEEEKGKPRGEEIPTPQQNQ

[4] = read-out: MABP (mean arterial blood pressure)
[5] = read-out: dP/dt (maximum change left ventricular pressure with time)
[6] = Canis lupus familiaris, renal vasodilator, relative to controls, read-out: HR (heart rate)
[7] = Canis lupus familiaris, renal vasodilator, relative to controls, read-out: MABP (mean arterial blood pressure)
[8] = Canis lupus familiaris, renal vasodilator, relative to controls, read-out: RBF (renal blood flow)
[9] = Canis lupus familiaris, renal vasodilator, relative to controls, read-out: RVR (renal vascular resistance)

SMILES: COc1cc2c(C)nc(O)c(Cl)c2cc1OC [Compound AE, 4-Chloro-3-hydroxy-6,7-dimethoxy-1-methylisoquinoline]
change in vivo at 0.875 mg/kg (adult mongrel dogs [1]; read-out: CF (cardiac force)): 89%
change in vivo at 0.875 mg/kg (adult mongrel dogs [1]; read-out: HR (heart rate)): 29%
change in vivo at 0.875 mg/kg (adult mongrel dogs [1]; [4]): 1%
change in vivo at 0.875 mg/kg (adult mongrel dogs [1]; [5]): 88%
change in vivo at 0.14 mg/kg (adult mongrel dogs [2]; [8]): 12%
change in vivo at 0.14 mg/kg (adult mongrel dogs [2]; [9]): -25%
IC50 [3]: 62 µM

SMILES: COC(=O)CCc1c(O)nc(C)c2cc(OC)c(OC)cc12 [Compound B, 4-(β-Carbomethoxyethyl)-3-hydroxy-6,7-dimethoxy-1-methylisoquinoline]
change in vivo at 0.875 mg/kg (adult mongrel dogs [1]; read-out: CF (cardiac force)): 140%
change in vivo at 0.875 mg/kg (adult mongrel dogs [1]; read-out: HR (heart rate)): 34%
change in vivo at 0.875 mg/kg (adult mongrel dogs [1]; [4]): -12%
change in vivo at 0.875 mg/kg (adult mongrel dogs [1]; [5]): 78%
cardiotonic activity (in words) (adult mongrel dogs [1]): cardiotonic properties
change in vivo at 13.9 mg/kg (adult mongrel dogs [2]; Canis lupus familiaris, renal vasodilator, dose 13.9 mg/kg intravenous, relative to controls, read-out: HR (heart rate)): 12%
change in vivo at 13.9 mg/kg (adult mongrel dogs [2]; Canis lupus familiaris, renal vasodilator, dose 13.9 mg/kg intravenous, relative to controls, read-out: MABP (mean arterial blood pressure)): -28%
change in vivo at 13.9 mg/kg (adult mongrel dogs [2]; Canis lupus familiaris, renal vasodilator, dose 13.9 mg/kg intravenous, relative to controls, read-out: RBF (renal blood flow)): 15%
change in vivo at up to 13.9 mg/kg (adult mongrel dogs [2]; Canis lupus familiaris, renal vasodilator, dose 13.9 mg/kg intravenous, relative to controls, read-out: RVR (renal vascular resistance)): -38%
renal vasodilating activity (in words) (adult mongrel dogs [2]): renal vasodilating properties
IC50 [3]: 40 µM
phosphodiesterase fraction III inhibition (in words) [3]: inhibit phosphodiesterase fraction III activity; also recorded: phosphodiesterase fraction III inhibiting properties

SMILES: COc1ccc2c(C)nc(O)cc2c1 [AI]
change in vivo at 0.925 mg/kg (adult mongrel dogs [1]; read-out: CF (cardiac force)): 65%
change in vivo at 0.925 mg/kg (adult mongrel dogs [1]; read-out: HR (heart rate)): 8%
change in vivo at 0.925 mg/kg (adult mongrel dogs [1]; [4]): 0%
change in vivo at 0.925 mg/kg (adult mongrel dogs [1]; [5]): 56%
change in vivo at 1.2 mg/kg (adult mongrel dogs [2]; [6]): 4%
change in vivo at 1.2 mg/kg (adult mongrel dogs [2]; [7]): -1%
change in vivo at 1.2 mg/kg (adult mongrel dogs [2]; [8]): 7%
change in vivo at 1.2 mg/kg (adult mongrel dogs [2]; [9]): -7%
IC50 [3]: 160 µM

SMILES: COc1cc2c(C)nc(O)c(C3CCCC3)c2cc1OC [AN]
change in vivo at 1.875 mg/kg (adult mongrel dogs [1]; read-out: CF (cardiac force)): 46%
change in vivo at 1.875 mg/kg (adult mongrel dogs [1]; read-out: HR (heart rate)): 5%
change in vivo at 1.875 mg/kg (adult mongrel dogs [1]; [4]): 3%
change in vivo at 1.875 mg/kg (adult mongrel dogs [1]; [5]): 22%
change in vivo at 0.34 mg/kg (adult mongrel dogs [2]; [6]): 1%
change in vivo at 0.34 mg/kg (adult mongrel dogs [2]; [7]): -1%
change in vivo at 0.34 mg/kg (adult mongrel dogs [2]; [8]): 10%
change in vivo at 0.34 mg/kg (adult mongrel dogs [2]; [9]): -10%
IC50 [3]: 128 µM

SMILES: COc1cc(OC)c2c(C)nc(O)cc2c1 [AH]
change in vivo at 0.375 mg/kg (adult mongrel dogs [1]; read-out: CF (cardiac force)): 50%
change in vivo at 0.375 mg/kg (adult mongrel dogs [1]; read-out: HR (heart rate)): 6%
change in vivo at 0.375 mg/kg (adult mongrel dogs [1]; [4]): -3%
change in vivo at 0.375 mg/kg (adult mongrel dogs [1]; [5]): 46%
change in vivo at 1.2 mg/kg (adult mongrel dogs [2]; [6]): 25%
change in vivo at 1.2 mg/kg (adult mongrel dogs [2]; [7]): -6%
change in vivo at 1.2 mg/kg (adult mongrel dogs [2]; [8]): 13%
change in vivo at 1.2 mg/kg (adult mongrel dogs [2]; [9]): -17%
IC50 [3]: 80 µM

Stronger by IC50 [3], values ahead:

IC50 [3]: 37 µM
SMILES: CCCCOc1cc2c(C)nc(O)cc2cc1OC [AL]
change in vivo at 0.375 mg/kg (adult mongrel dogs [1]; read-out: CF (cardiac force)): 138%
change in vivo at 0.375 mg/kg (adult mongrel dogs [1]; read-out: HR (heart rate)): 22%
change in vivo at 0.375 mg/kg (adult mongrel dogs [1]; [4]): -10%
change in vivo at 0.375 mg/kg (adult mongrel dogs [1]; [5]): 46%
cardiotonic activity (in words) (adult mongrel dogs [1]): cardiotonic properties
change in vivo at 1.2 mg/kg (adult mongrel dogs [2]; [6]): 9%
change in vivo at 1.2 mg/kg (adult mongrel dogs [2]; [7]): -6%
change in vivo at 1.2 mg/kg (adult mongrel dogs [2]; [8]): 13%
change in vivo at 1.2 mg/kg (adult mongrel dogs [2]; [9]): -17%
renal vasodilating activity (in words) (adult mongrel dogs [2]): renal vasodilating properties
phosphodiesterase fraction III inhibition (in words) [3]: inhibit phosphodiesterase fraction III activity; also recorded: phosphodiesterase fraction III inhibiting properties

IC50 [3]: 11 µM
SMILES: COc1cc2c(CCl)nc(O)c(Cl)c2cc1OC [AD]
change in vivo at 1.875 mg/kg (adult mongrel dogs [1]; read-out: CF (cardiac force)): 111%
change in vivo at 1.875 mg/kg (adult mongrel dogs [1]; read-out: HR (heart rate)): 21%
change in vivo at 1.875 mg/kg (adult mongrel dogs [1]; [4]): -3%
change in vivo at 1.875 mg/kg (adult mongrel dogs [1]; [5]): 106%
cardiotonic activity (in words) (adult mongrel dogs [1]): cardiotonic properties
change in vivo at 5 mg/kg (adult mongrel dogs [2]; [8]): 16%
change in vivo at 5 mg/kg (adult mongrel dogs [2]; [9]): -32%
renal vasodilating activity (in words) (adult mongrel dogs [2]): renal vasodilating properties
phosphodiesterase fraction III inhibition (in words) [3]: inhibit phosphodiesterase fraction III activity; also recorded: phosphodiesterase fraction III inhibiting properties
